According to patent US20260234159A1, “SMALL MOLECULE TREATMENT OF FATTY LIVER DISEASE AND HCC” (SCANDIEDGE THERAPEUTICS AB, priority 2023, published 2026):

Key:
[1] = tested on: HepG2 cells; assay: MTT cell viability / IC50 in growth media; type: cell-based, human; settings: for IC50: Homo sapiens, 48 h, HepG2, treatment for 2 days; for cell viability of HepG2 cells: especially in cancerous media
[2] = MTT cell viability / IC50 in growth media; type: cell-based, human; settings: human, HepG2 cells, 10 μM; for viability at 2 days, 10 µM: treatment for 2 days; for viability at 4 day, 10 µM: day 4
[3] = tested on: HepG2 cells; assay: Wound healing assay; type: cell-based; settings: Homo sapiens, HepG2, 96 h, day 4, untreated 100% wound closure, read-out: wound healing delayed by
In short: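 HepG2 monolayers grown to 95-100% confluence were scratched with a pipette tip and treated with compounds at 1 μM. Wounds were imaged from day 0 until closure in the control group, and wound area was measured from the images.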

[4] = tested on: HepG2 cells; assay: Mitochondrial membrane potential assay (TMRE); type: cell-based, human; settings: 10 μM, one day
In short: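 HepG2 cells treated with compounds at the chosen concentration and time, then assayed with kits for TMRE, autophagy, DCFDA ROS or lipid peroxidation. Fluorescence intensity measured from ROI in images or by microplate reader in triplicate (GFP Ex480/Em530 nm, RFP Ex549/Em574 nm).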

[5] = tested on: HepG2 cells; assay: Invasion assay (transwell); type: cell-based, human; settings: Homo sapiens, HepG2, 24 hr, read-out: invasiveness reduced by
In short: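 HepG2 cells (100,000) in serum-free medium with compounds placed on collagen-coated 8 μm transwell membranes, with 10% FBS medium below as attractant. After one day at 37 °C, cells fixed in formaldehyde and stained with crystal violet. Invaded cells on the outer membrane imaged and counted.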

For `N#Cc1c(NC(=O)c2cccc3ccccc23)sc2c1CCCC2` [JNK-IN-5A, N-(3-cyano-4,5,6,7-tetrahydrobenzo[b]thiophen-2-yl)-1-naphthamide], the “dose dependence of cell viability” value ([1]; 30 μM to 30 nM) was “non-dose-dependent, linear reduction in cell viability”, the IC50 ([1]; 30 μM to 30 nM) was 36.4 µM and the viability at 2 days, 10 µM [2] was 59.7%. For the same molecule, the inhibition at 1 µM [3] was 32.7%, the mitochondrial membrane potential [4] was “significantly decreased” and the inhibition at 1 µM [5] was 24.9%.

For `COc1ccc(C(=O)Nc2sc3c(c2C#N)CCCCC3)cc1OC` [PKL-A135, N-(3-cyano-5,6,7,8-tetrahydro-4H-cyclohepta[b]thiophen-2-yl)-3,4-dimethoxy-benzamide], the IC50 ([1]; 30 μM to 30 nM) was 12 µM, the “cell viability of HepG2 cells” value [1] was “significantly low cell viability” and the viability at 4 day, 10 µM [2] was 15.9%. The viability at 2 days, 10 µM [2] was 43.1%, the inhibition at 1 µM [3] was 31.2% and the mitochondrial membrane potential [4] was “significantly decreased”. For the same molecule, the inhibition at 1 µM [5] was 29.5%.

For `N#Cc1c(NC(=O)c2cccc3ccccc23)sc2c1CCN(CC(=O)Nc1cccc(Br)c1)C2` [PKL-B171], the IC50 ([1]; 30 μM to 30 nM) was 21.8 µM, the “cell viability of HepG2 cells” value [1] was “particularly low cell viability” and the viability at 4 day, 10 µM [2] was 1.1%. The viability at 2 days, 10 µM [2] was 67.4%, the inhibition at 1 µM [3] was 36.4% and the mitochondrial membrane potential [4] was “significantly decreased”. For the same molecule, the inhibition at 1 µM [5] was 21.4%.

Work on `N#Cc1c(NC(=O)c2cccc3ccccc23)sc2c1CCN(C(=O)Nc1ccccc1OC(F)(F)F)C2` [PKL-A159] yielded an IC50 ([1]; 30 μM to 30 nM) of 9.72 µM, a viability at 2 days, 10 µM [2] of 61.6% and an inhibition at 1 µM [3] of 35.5%. For the same molecule, the mitochondrial membrane potential [4] was “significantly decreased” and the inhibition at 1 µM [5] was 77.8%.
